{"source": "the supplement of paper PMC10307832", "assay_in_all_cases": "relative viability (nuclei count vs DMSO), 5 days (fraction); higher = more cells survive", "key": {"[1]": {"compound": "COc1cc2nccc(Oc3ccc(NC(=O)C4(C(=O)Nc5ccc(F)cc5)CC4)cc3)c2cc1OC [Cabozantinib] + CS(=O)(=O)CCNCc1ccc(-c2ccc3ncnc(Nc4ccc(OCc5cccc(F)c5)c(Cl)c4)c3c2)o1 [Lapatinib] (partner 2 µM)", "summary_of_the_method": "(§1)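 Dosing by pin tool came one day after lung cancer cell lines were seeded in 1536-well plates, using either one drug or a fixed anchor-drug dose plus five library-drug doses (not always all listed) in √10 steps. After 5 days, nuclei were counted on 4× images. Relative viability is treated-well nuclei count divided by vehicle-well nuclei count, and values are medians of duplicate plates.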"}, "[2]": {"compound": "O[C@@H](COc1cccc2ncccc12)CN1CCN([C@@H]2c3ccccc3[C@@H]3[C@H](c4ccccc42)C3(F)F)CC1 [Zosuquidar] + Cc1nc(Nc2ncc(C(=O)Nc3c(C)cccc3Cl)s2)cc(N2CCN(CCO)CC2)n1 [Dasatinib] (partner 0.075 µM)", "summary_of_the_method": "as §1"}, "[3]": {"compound": "O[C@@H](COc1cccc2ncccc12)CN1CCN([C@@H]2c3ccccc3[C@@H]3[C@H](c4ccccc42)C3(F)F)CC1 [Zosuquidar] + CCNC(=O)c1noc(-c2cc(C(C)C)c(O)cc2O)c1-c1ccc(CN2CCOCC2)cc1 [Luminespib] (partner 0.01 µM)", "summary_of_the_method": "as §1"}, "[4]": {"compound": "C1=CC(=CC=C1NC(=S)NNC2=C(C=C(C=C2[N+](=O)[O-])C(F)(F)F)[N+](=O)[O-])F [Kobe2602] + N=C(N)NC(=N)NCCc1ccccc1 [Phenformin] (partner 250 µM)", "summary_of_the_method": "as §1"}}, "data": [{"cell line": "UMC-11", "values": [{"measurement": "relative viability", "setting": "[1]; first compound 0.02 µM", "result": 1.05}, {"measurement": "relative viability", "setting": "[1]; first compound 0.06325 µM", "result": 1.41}, {"measurement": "relative viability", "setting": "[1]; first compound 0.2 µM", "result": 0.86}, {"measurement": "relative viability", "setting": "[1]; first compound 0.6325 µM", "result": 1.07}, {"measurement": "relative viability", "setting": "[1]; first compound 2 µM", "result": 0.91}, {"measurement": "relative viability", "setting": "[2]; first compound 0.01 µM", "result": 0.428}, {"measurement": "relative viability", "setting": "[2]; first compound 0.03162 µM", "result": 0.535}, {"measurement": "relative viability", "setting": "[2]; first compound 0.1 µM", "result": 0.455}, {"measurement": "relative viability", "setting": "[2]; first compound 0.3162 µM", "result": 0.486}, {"measurement": "relative viability", "setting": "[2]; first compound 1 µM", "result": 0.518}, {"measurement": "relative viability", "setting": "[3]; first compound 0.01 µM", "result": 0.97}, {"measurement": "relative viability", "setting": "[3]; first compound 0.03162 µM", "result": 0.943}, {"measurement": "relative viability", "setting": "[3]; first compound 0.1 µM", "result": 1.08}, {"measurement": "relative viability", "setting": "[3]; first compound 0.3162 µM", "result": 1.1}, {"measurement": "relative viability", "setting": "[3]; first compound 1 µM", "result": 1.18}, {"measurement": "relative viability", "setting": "[4]; first compound 0.2 µM", "result": 0.358}, {"measurement": "relative viability", "setting": "[4]; first compound 0.6325 µM", "result": 0.336}, {"measurement": "relative viability", "setting": "[4]; first compound 2 µM", "result": 0.334}, {"measurement": "relative viability", "setting": "[4]; first compound 6.325 µM", "result": 0.335}, {"measurement": "relative viability", "setting": "[4]; first compound 20 µM", "result": 0.306}]}]}
